Laboratory results as given in patent US11478469B2, “Combination product of BCL-2 inhibitor and MDM2 inhibitor and use thereof in the prevention and/or treatment of diseases” (ASCENTAGE PHARMA (SUZHOU) CO., LTD., priority 2018, dated 2022).

Columns and labels:
Assay type in all cases: cell-based
[1] = test system: MV-4-11 (acute myeloid leukemia (AML)); assay: CellTiter-Glo (CTG) cell proliferation assay, MV-4-11; details: Homo sapiens, MV4-11; MV-4-11, single agent alone, 24 hours; read-out: IC50 for inhibition of proliferation
Method: Anti-proliferative effects were tested by CellTiter-Glo® (CTG) assay. Cells were seeded in 96-well plates and treated with different concentrations of test substance for 24 hours. […] Each test dose was tested with 3 replicate wells. Usually, 9 series of doses of the test substance were selected, and added to 96-well plates, 5 μl/well. For the combination experiment, the final volume of the two test substances was 5 μl/well. Each test dose was tested with 3 replicate wells. On the same plate, 3-6 wells were selected and added with 100 μl of dilution solution as a control group, and another 3-6 wells were used as a blank control. […] After mixing on a shaker for 2 minutes, leaving at room temperature for 10 minutes, the fluorescence value was read by using a Biotek synergy HIMF plate reader. […] For the combination test, the cell viability was calculated by normalizing the average OD value of 3 duplicate wells of the single drug control. […] Cell viability (%) values of Compound 6 alone and the combination of Compound 6 and APG-115 in the following malignant tumor cells were determined in the CTG experiment: OCI-AML-3 (acute myeloid leukemia (AML)), MV-4-11 (acute myeloid leukemia (AML)), KMS-26 (multiple myeloma (MM)), KMS-11 (multiple myeloma (MM)).

[2] = test system: KMS-26 (multiple myeloma (MM)); assay: CellTiter-Glo (CTG) cell proliferation assay, KMS-26; details: KMS-26, single agent alone, 24 hours; read-out: IC50 for inhibition of proliferation
Method: (§1) Anti-proliferative effects were tested by CellTiter-Glo® (CTG) assay. Cells were seeded in 96-well plates and treated with different concentrations of test substance for 24 hours. By using 9 different concentrations of Compound 6 (which were selected in a 3× gradient between 10-3 and 101 μM, i.e., 0.0016, 0.0045, 0.014, 0.041, 0.12, 0.36, 1.1, 3.2, 10 μM) in combination with 3 different concentrations of MDM2 inhibitor (e.g., APG-115) in action for 24 hours, the effects of Compound 6 in combination with the drug were tested. Each test dose was tested with 3 replicate wells.
(§2) Usually, 9 series of doses of the test substance were selected, and added to 96-well plates, 5 μl/well. For the combination experiment, the final volume of the two test substances was 5 μl/well. […] After mixing on a shaker for 2 minutes, leaving at room temperature for 10 minutes, the fluorescence value was read by using a Biotek synergy HIMF plate reader. Using the average fluorescence value of 3 replicate wells, the percentage of cell viability was calculated by the following formula: Cell viability (%)=(fluorescence value of test well—fluorescence value of negative control well)/(fluorescence value of vehicle control-fluorescence value of negative control group)×100%
(§3) The IC50 was calculated using the nonlinear regression data analysis method of Graphpad Prism 6.0 software ([…]). […]

[3] = test system: KMS-11 (multiple myeloma (MM)); assay: CellTiter-Glo (CTG) cell proliferation assay, KMS-11; details: Homo sapiens; KMS-11, single agent alone, 24 hours; read-out: IC50 for inhibition of proliferation
Method: as §1, §2, §3

With `CCN1[C@@H](C(=O)NC23CCC(C(=O)O)(CC2)CC3)[C@H](c2cccc(Cl)c2F)[C@]2(C(=O)Nc3cc(Cl)ccc32)C12CCCCC2` [APG-115] the IC50 [1] was 1.96 µM.

Compound `O=C(NS(=O)(=O)c1ccc(NC[C@H]2COCCO2)c([N+](=O)[O-])c1)c1ccc(N2CCN(CC3=C(c4ccc(Cl)cc4)CC4(CCC4)CC3)CC2)cc1Oc1cnc2[nH]ccc2c1` [Compound 6, (S)-N-((4-(((1,4-dioxan-2-yl)methyl)amino)-3-nitrophe-nyl)sulfonyl)-2-((1H-pyrrolo[2,3-b]pyridin-5-yl)oxy)-4-(4-((6-(4-chlorophenyl)spiro[3.5]non-6-en-7-yl)meth-yl)piperazin-1-yl)benzamide] has an IC50 [1] of 0.0847 µM, an IC50 [2] of 14.7 µM and an IC50 [3] of 10.8 µM.
